Assay results: patent US20140162285A1, “Methods of Modulating Vesicular Trafficking” (The General Hospital Corporation, priority 2009, published 2014)
Entries after “also recorded” stand apart in the source; their conditions may differ. Peptide text beside a SMILES is read from it. * marks the point of attachment. Biotin = O=C1N[C@H]2[C@H](CS[C@H]2CCCCC(=O)*)N1

Columns and labels:
[1] = target: T1, Sec7-domain of ARNO (Homo sapiens, UniProt Q99418); assay: a2N-derived peptide pull-down with GST-Sec7 domain; format: binding; details: GST-Sec7-6His
T1 construct: iii) 61-252aa, Sec7 domain; GST (N, cleaved yes); made in house; host or cells: E. coli BL21(DE3)
T1 sequence (Q99418 61-252): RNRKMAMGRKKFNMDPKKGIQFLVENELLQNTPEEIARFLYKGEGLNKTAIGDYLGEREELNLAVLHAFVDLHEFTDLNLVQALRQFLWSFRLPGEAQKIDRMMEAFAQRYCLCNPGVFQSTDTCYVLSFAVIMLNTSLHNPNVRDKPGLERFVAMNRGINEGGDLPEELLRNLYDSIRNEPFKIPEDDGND
Protocol: (§1) FIGS. 5A-C are a set of three images of Western blots showing the identification of interaction motif of a2N that is involved in specific binding with the Sec7 domain of ARNO. 5A, The catalytic Sec7 domain of ARNO interacts with two a2N-derived peptides, a2N-01 and a2N-03, in pull-down experiments. The peptide pull-down assay was performed with six a2N-derived interaction peptides immobilized on streptavidin-beads and incubated with purified recombinant GST-only or GST-Sec7 domain. Interacting complexes were eluted and analyzed by Western blotting using monoclonal anti-GST antibodies as described below. The loading controls for GST-only (lane 1) or GST-Sec7 (lane 2) are shown. […] The peptide pull-down assay was performed with peptides a2N-01 and a2N-03 immobilized on streptavidin-beads and incubated with purified recombinant GST-PH domain (5B) or GST-PB domain (5C). Interacting complexes were eluted and analyzed by Western blotting using monoclonal anti-GST antibodies. […]
(§2) These a2N-derived peptides were immobilized by an N-terminal biotin-tag, which ensured the same efficiency and equivalent binding to streptavidin-agarose beads. […] After washing beads four times in ice-cold binding buffer, the interacting complexes were eluted by boiling in SDS-PAGE sample buffer for 10 min at 95° C., resolved by SDS-PAGE and analyzed by Western blotting using monoclonal anti-GST antibody.

[2] = target: T2, PH-domain of ARNO (Homo sapiens, UniProt Q99418); assay: a2N-derived peptide pull-down with GST-PH domain; format: binding
T2 construct: iv) 253-378aa, plekstrin-homology (PH) domain; made in house; host or cells: E. coli BL21(DE3)
T2 sequence (Q99418 253-378): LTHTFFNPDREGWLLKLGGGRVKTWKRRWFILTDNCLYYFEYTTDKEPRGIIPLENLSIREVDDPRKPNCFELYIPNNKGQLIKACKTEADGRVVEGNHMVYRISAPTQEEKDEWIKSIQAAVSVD
Protocol: as §1
as §2, with “antibody. […]” for “antibody.”

interaction with PH-domain of ARNO [2]: does not interact
SMILES: CSCC[C@H](NC(=O)CCCC[C@@H]1SC[C@@H]2NC(=O)N[C@@H]21)C(=O)NCC(=O)N[C@@H](CO)C(=O)N[C@@H](CC(C)C)C(=O)N[C@@H](Cc1ccccc1)C(=O)N[C@@H](CCCNC(=N)N)C(=O)N[C@@H](CO)C(=O)N[C@@H](CCC(=O)O)C(=O)N[C@@H](CO)C(=O)N[C@@H](CCSC)C(=O)N[C@@H](CS)C(=O)N[C@@H](CC(C)C)C(=O)N[C@@H](C)C(=O)N[C@@H](CCC(N)=O)C(=O)N[C@@H](CC(C)C)C(=O)N[C@@H](Cc1ccccc1)C(=O)N[C@@H](CC(C)C)C(=O)N[C@@H](CS)C(=O)O [a2N-01, Bio-MGSLFRSE SMCLAQLFL-Cys] (Biotin-MGSLFRSESMCLAQLFLC-OH; N-terminus and C-terminus assumed)
interaction with Sec7-domain of ARNO [1]: interact; also recorded: specifically interacts
